Assay results: patent EP0563686A1, “Utilization of 3 substituted amino isoxazole derivatives against endoparasites, new 3 substituted amino isoxazols and process for their preparation” (BAYER AG, priority 1992, dated 1993)

Key:
[1] = test system: Trichostrongylus colubriformis; assay: In vivo nematode test, Trichostrongylus colubriformis / sheep (faecal worm egg count before and after treatment); set-up: species or system Schaf; conditions: experimentally infected sheep, treated after prepatency, pure active in gelatin capsules, oral, dose giving complete cessation of egg excretion, read-out: Dosis effectiva
Text: Trichostrongylus colubriformis / Schaf
Experimentell mit Trichostrongylus colubriformis infizierte Schafe wurden nach Ablauf der Präpatenzzeit des Parasiten behandelt. Die Wirkstoffe wurden als reiner Wirkstoff in Gelatinekapseln oral appliziert.
(§1) Der Wirkungsgrad wird dadurch bestimmt, daß man die mit dem Kot ausgeschiedenen Wurmeier vor und nach der Behandlung quantitativ auszählt.
Ein völliges Sistieren der Eiausscheidung nach der Behandlung bedeutet, daß die Würmer abgetrieben wurden oder so geschädigt sind, daß sie keine Eier mehr produzieren (Dosis effectiva).
(§2) Geprüfte Wirkstoffe und wirksame Dosierungen (Dosis effectiva) sind aus der nachfolgenden Tabelle ersichtlich.

Haemonchus contortus = assay: In vivo nematode test, Haemonchus contortus / sheep (faecal worm egg count before and after treatment); set-up: species or system Schaf; conditions: experimentally infected sheep, treated after prepatency, pure active in gelatin capsules, oral, dose giving complete cessation of egg excretion, read-out: Dosis effectiva
Text: Haemonchus contortus / Schaf
Experimentell mit Haemonchus contortus infizierte Schafe wurden nach Ablauf der Präpatenzzeit des Parasiten behandelt. Die Wirkstoffe wurden als reiner Wirkstoff in Gelatinekapseln oral appliziert.
as §1
Ein völliges Sistieren der Eiausscheidung nach der Behandlung bedeutet, daß die Wärmer abgetrieben wurden oder so geschädigt sind, daß sie keine Eier mehr produzieren (Dosis effectiva).
as §2

Compound	minimal effective dose [1] [mg/kg]	minimal effective dose (Haemonchus contortus) [mg/kg]
CCNc1cc(-c2ccc(OC)cc2)on1 [Beispiel 4, 3-Ethylamino-5-(4-methoxyphenyl)-isoxazol]	10	10
COc1ccc(-c2cc(NC3CC3)no2)cc1 [Beispiel 6]	10	10
COc1ccc(-c2cc(NCC3CC3)no2)cc1 [Beispiel 10]	10	10
COc1ccc(-c2cc(NCCc3ccccc3)no2)cc1 [Beispiel 13]	–	10
CCNc1cc(-c2ccc(SC(F)(F)F)cc2)on1 [Beispiel 22]	10	10
Brc1ccc(-c2cc(NC3CCCCC3)no2)cc1 [Beispiel 43]	–	10
CCNc1cc(-c2cccnc2)on1 [Beispiel 57]	10	10
CCNc1cc(-c2ccsc2)on1 [Beispiel 63]	10	–
